What was measured:
HLE cells = test: Cell proliferation assay (CyQUANT NF) in HLE cells; type: cell-based; settings: HLE cells transfected with siRNA at 20 nM
Method: HLE cells, HCT116 cells, and A549 cells were transfected with 25 to 50 nM ASO and 10 to 20 nM siRNA using Lipofectamine 3000 (Invitrogen, Carlsbad, CA, USA) or RNAiMAX (Invitrogen). Transfected cells were used in the experiments 36 to 48 hours after the end of the transfection.
The cell proliferation assays were performed using the CyQUANT NF Cell Proliferation Assay Kits (Thermo Fisher Scientific), in the way recommended by the manufacturer.
HLE cells were transfected with control ASO, ASO-1316 and ASO-3223 at 25 nM and a proliferation assay was performed; the results of the assay are shown in (e) of FIG. 4.
(§1) HLE cells were transfected with control siRNA and PIK3CD siRNA (siRNA against PIK3CD) at 20 nM, and a proliferation assay was performed; the results are shown in (e) of FIG. 5. In addition, an anti-phosphorylated AKT antibody and an anti-AKT antibody as probes were caused to act on cell lysates of HLE cells transfected with control siRNA and PIK3CD siRNA; the results are shown in FIG. 5 (f). HLE cells were transfected with control siRNA and PIK3CD siRNA (siRNA against PIK3CD) at 20 nM and the PIK3CD mRNA amount was measured by real-time PCR; the results are shown in (c) of FIG. 7.

AKT = test: Anti-phosphorylated AKT / anti-AKT probing of HLE cell lysates; type: cell-based; settings: HLE cells transfected with PIK3CD siRNA
Source text: Anti-ARL4C and anti-PIK3CD antibodies were purchased from Abcam (Cambridge, UK) and Santa Cruz Biotechnology (Santa Cruz, CA, USA), respectively. Anti-phosphorylated AKT (S473) antibody, anti-AKT antibody, anti-Ki-67 antibody, and anti-YAP/TAZ were purchased from Cell Signaling Technology (Beverly, MA, USA). PD184161 (MEK1/2 inhibitor) and VivoGlo luciferin were purchased from Sigma-Aldrich (Steinheim, Germany) and Promega (Madison, WI, USA), respectively.
as §1

In the case of “PIK3CD siRNA: siRNA against PIK3CD, Table 3, SEQ ID NO: 102 and 103 (chain 1 GCGAATACTCTGCCATTAT; chain 2 GCCAACTAACTCTGCAGAT; two separate siRNAs, only sense strands listed, further chemistry not given here) [reference compound]”, the cell proliferation (HLE cells) is reported as “suppressed cell proliferation” and the “AKT activity (pAKT S473)” value (AKT) is reported as “reduced AKT activity”.

Source: patent publication US12071624B2, “Antisense oligonucleotide targeting ARL4C molecule, and nucleic acid drug using antisense oligonucleotide” (OSAKA UNIVERSITY, priority 2018, dated 2024)
